Assay [1] has as its system Larven des Pelzkäfers (Attagenus piceus Oliv.). The assay can be described thus: Fastness test against fur beetle larvae (SNV 195901) on wool treated by pad (Foulard) application, Example 5. Conditions: 15 larvae, 14 days, 28°C, 65 % r.h. It counts as in vivo. The text has this:
(§1) Die mit den zu prüfenden Verbindungen ausgerüsteten trockenen Wollmuster werden der Mottenechtheitsprüfung (Frassschutz gegen die Kleidermotte Tineola bisselliella Hum.) sowie der Echtheitsprüfung gegen Larven des Pelzkäfers (Attagenus piceus Oliv.) und Teppichkäfers (Anthrenus flavipes var. seminiveus) gemäss der Vorschrift des Schweizer Normenverbandes SNV 195901 unterworfen.
(§2) Es werden jeweils Larven von Tineola und Larven von Anthrenus und 6 bis 7 Wochen alte Larven von Attagenus zur Prüfung verwendet.
(§3) Aus dem behandelten Wollflanellmuster werden Stücke gleicher Grösse ausgeschnitten und 14 Tage lang bei konstanter Temperatur (28°C) und konstanter relativer Luftfeuchtigkeit (65 %) dem Angriff (Frass) von je 15 Larven des entsprechenden Schädlings ausgesetzt. Die Beurteilung für alle 3 Schädlinge erfolgt nach dem Gewichtsverlust des Wollmusters.
(§4) 12,5 ml der jeweiligen, die zu prüfenden Verbindungen Nr. 101, 102, 201, 203, 205, 301 und 302 enthaltenden Stammlösung gemäss Beispiel 4 werden mit Aethylenglykolmonoäthyläther, der 1 g/1 eines Netz- und Dispergiermittels enthält, verdünnt. Die'Verdünnung erfolgt in der Weise, dass in der erhaltenen Foulardflotte die Konzentration der jeweils zu prüfenden Verbindung so eingestellt ist, dass auf dem Wollgewebe nach dem foulardieren x ppm des jeweiligen Wirkstoffes vorhanden sind (siehe Tabelle 2). Jeweils 3 ml der erhaltenen Lösung werden in eine Kristallisierschale gegeben. Darin wird eine geköderte Rondelle aus Wollgewebe mit Hilfe einer Pinzette ca. 3 Sekunden lang benetzt. Die feuchten Rondellen werden dann zwischen 2 Aluminiumfolien foulardiert, und zwar derart, dass die abgequetschten Rondellen je 100 X, bezogen auf ihr Gewicht, an Flotte aufgenommen haben. Die feuchten Rondellen werden an der Luft getrocknet und den gleichen biologischen Prüfungen unterworfen, die in Beispiel 4 beschrieben sind. Die Ergebnisse sind in der nachfolgenden Tabelle 2 zusammengefassst: […]

For assay [2] the test system is unchanged. The assay can be described thus: Fastness test against fur beetle larvae (SNV 195901) on wool treated in the exhaust bath, Example 4. In kind it is in vivo. Conditions: 15 larvae, 14 days, 28°C, 65 % r.h. The protocol: (§5) Von den zu prüfenden Verbindungen Nr. 101, 102, 201, 203, 205, 301 und 302 werden Stammlösungen durch Auflösung von jeweils 50 mg der Wirksubstanz in 25 ml Aethylenglykolmonoäthyläther bereitet.
(§6) 3 g schwere, gut vorgenetzte Wollgewebstücke werden in eine 30°C warme wässrige Flotte eingebracht, die folgende Bestandteile enthält: • x ppm, bezogen auf das Wollgewicht, der jeweils zu prüfenden Verbindung (eine entsprechende Menge der oben beschriebenen Stammlösung wird der Flotte zugegeben). • 1 X, bezogen auf das Wollgewicht, 80%-ige Essigsäure. • 4 X, bezogen auf das Wollgewicht, Ammoniumsulfat. • 0,5 g/1 Flotte eines Netz- und Dispergiermittels.
(§7) Die Temperatur der Flotte wird innerhalb 20 Minuten auf 98°C gesteigert und 60 Minuten bei dieser Temperatur belassen. Nach dem Abkühlen werden die Muster einzeln mit Wasser gespült und bei Raumtemperatur getrocknet.
as §1, §2, §3
(§8) .Aus der nachfolgenden Tabelle 1 ist für die geprüften Verbindungen die jeweilige Einsatzkonzentration (in ppm, bezogen auf das Wollgewicht) und der durch den Schädlingsfrass verursachte Gewichtsverlust (in mg) zu entnehmen: […]

Assay [3] deals with Kleidermotte Tineola bisselliella Hum. Put plainly: Moth-proofing test (SNV 195901) on wool treated by pad (Foulard) application, Example 5. It counts as in vivo. Conditions: 15 larvae, 14 days, 28°C, 65 % r.h.
Text: as §1, §2, §3, §4

Assay [4] has the same test system. Put plainly: Moth-proofing test (feeding protection, SNV 195901) on wool treated in the exhaust bath, Example 4. It counts as in vivo. As to conditions: 15 larvae, 14 days, 28°C, 65 % r.h. The protocol:
as §5, §6, §7, §1, §2, §3, §8

Assay [5] has as its system die in Beispiel 4 genannten keratinfressenden Schädlinge. The assay can be described thus: Protection of wool articles treated in a dry-cleaning liquor, Example 6. In kind it is in vivo, Tineola bisselliella, Attagenus piceus, Anthrenus flavipes. Conditions: 10%-ige solution diluted 1:200 by volume in dry-cleaning solvent; wool spun to ca. 100 % solvent content, dried. The text has this:
Beispiel 6: Es wird jeweils eine 10%-ige Lösung der Verbindungen Nr. 101, 201, 202 und 301 in Aethylenglykolmonomethyläther hergestellt. Ein Volumenteil dieser Lösung wird mit 200 Volumen- 'teilen eines zur Trockenreinigung geeigneten Lösungsmittels, z.B. einer passenden Benzinfraktion oder Perchloräthylen, verdünnt. Gewünschtenfalls können noch reinigungsfördernde Zusätze beigefügt werden. Wollartikel werden nun wie üblich in diesen Reinigungsflüssigkeiten behandelt und anschliessend auf einen Lösungsmittelgehalt von ca. 100 % des Wollgewichtes abgeschleudert.

The subject of assay [6] is Larven des Teppichkäfers (Anthrenus flavipes var. seminiveus). The assay can be described thus: Fastness test against carpet beetle larvae (SNV 195901) on wool treated by pad (Foulard) application, Example 5. In kind it is in vivo. Conditions: 15 larvae, 14 days, 28°C, 65 % r.h.
Text: as §1, §2, §3, §4

The subject of assay [7] is die in Beispiel 4 genannten keratinfressenden Schädlinge. The assay can be described thus: Protection of wool articles treated by spray application, Example 7. In kind it is in vivo, Tineola bisselliella, Attagenus piceus, Anthrenus flavipes. Conditions: 0,5%-ige solution sprayed, 2 x 15 g/m^2; about 400 ppm active on the material. An excerpt:
Beispiel 7: Es wird jeweils eine 0,5%-ige Lösung der Verbindungen Nr. 101, 201, 202 und 301 in Methylenchlorid, Trichloräthylen oder einer tiefsiedenden Benzinfraktion angesetzt. Wollartikel werden mit Hilfe einer üblichen Sprüheinrichtung mit diesen Lösungen besprüht, so dass 2 x 15 g/m^2 an Wirkstofflösung appliziert werden. Bei einem Ausnützungseffekt des Aerosols von 30 % befinden sich dann etwa 400 ppm der jeweiligen Wirkstoffverbindung auf dem Material.

In assay [8] the test system is Larven des Teppichkäfers (Anthrenus flavipes var. seminiveus). Put plainly: Fastness test against carpet beetle larvae (SNV 195901) on wool treated in the exhaust bath, Example 4. Conditions: 15 larvae, 14 days, 28°C, 65 % r.h. In kind it is in vivo. The protocol:
as §5, §6, §7, §1, §2, §3, §8

The mark [9] stands for this setting: Einsatzkonzentration 30 ppm on wool.
[10] abbreviates: Einsatzkonzentration 30 ppm on wool weight.
The mark [11] stands for this setting: Einsatzkonzentration 250 ppm on wool.
The mark [12] stands for this setting: Einsatzkonzentration 300 ppm on wool weight.
Where [13] appears, read: Einsatzkonzentration 15 ppm on wool.
Where [14] appears, read: Einsatzkonzentration 7,5 ppm on wool.
Where [15] appears, read: Einsatzkonzentration 7,5 ppm on wool weight.
[16] abbreviates: Einsatzkonzentration 125 ppm on wool.
The mark [17] stands for this setting: Einsatzkonzentration 125 ppm on wool weight.

Consider `CC#CC(OC(=O)C1C(C=C(Cl)Cl)C1(C)C)c1cccc(Oc2ccccc2)c1` (mixture of isomers) [Verbindung 101, (±)-cis-2,2-Dimethyl-3-(2,2-dichlorvinyl)-cyclopropancarbonsäure-3-phenoxy-α-propin-1-yl-benzylester], for which the Gewichtsverlust in assay [1] (setting [9]) was 2,0 mg; in assay [2] (setting [10]) it was 9,0 mg; in assay [3] (setting [9]), 1,0 mg; in assay [4] (setting [10]), 1,2 mg; in assay [6] (setting [11]) it was 1,1 mg; in assay [8] (setting [12]), 9,2 mg. For the same molecule, the “Schutz gegen keratinfressende Schädlinge” value in assay [5] is given as “hervorragend gegen die in Beispiel 4 genannten keratinfressenden Schädlinge geschützt”; in assay [7] it was “gegen die in Beispiel 4 genannten keratinfressenden Schädlinge geschützt”.

Consider `CC1(C)C(C=C(Cl)Cl)C1C(=O)OC(C#N)c1cccc(Oc2ccccc2)c1` (mixture of isomers) [Verbindung 202, (±)-cis-2,2-Dimethyl-3-(2,2-dichlorvinyl)-cyclopropancarbonsäure-3-phenoxy-a-cyano-benzylester], for which the “Schutz gegen keratinfressende Schädlinge” value in assay [5] was “hervorragend gegen die in Beispiel 4 genannten keratinfressenden Schädlinge geschützt”; in assay [7], “gegen die in Beispiel 4 genannten keratinfressenden Schädlinge geschützt”.

On to `CC1(C)C(C=C(Cl)Cl)C1C(=O)OCc1cccc(Oc2ccccc2)c1` (mixture of isomers) [Verbindung 205, (+)-cis, trans-2,2-Dimethyl-3-(2,2-dichlorvinyl)-cyclopropancarbonsäure-3-phenoxybenzylester], for which the Gewichtsverlust in assay [1] (setting [13]) is given as 32,5 mg; in assay [2] (setting [10]), 14,9 mg; in assay [3] (setting [14]), 5,5 mg; in assay [4] (setting [15]), 5,8 mg; in assay [6] (setting [16]) it was 11,0 mg; in assay [8] (setting [17]), 29,2 mg.

As for `CC1(C)C(C=C(Cl)Cl)C1C(=O)OC(C#N)c1ccc(F)c(Oc2ccccc2)c1` (mixture of isomers) [Verbindung 301, (±)-cis-2,2-Dimethyl-3-(2,2-dichlorvinyl)-cyclopropancarbonsäure-3-phenoxy-4-fluor-a-cyanobenzylester], the Gewichtsverlust was 0,8 mg in assay [1] (setting [14]); 11,4 mg in assay [2] (setting [15]); 0 mg in assay [4] (setting [15]); 0,1 mg in assay [6] (setting [16]); 14,9 mg in assay [8] (setting [17]). The “Schutz gegen keratinfressende Schädlinge” value is recorded as “hervorragend gegen die in Beispiel 4 genannten keratinfressenden Schädlinge geschützt” in assay [5] and “gegen die in Beispiel 4 genannten keratinfressenden Schädlinge geschützt” in assay [7].

In the case of `CC1(C)C(C=C(Cl)Cl)C1C(=O)OCc1cccc(Oc2ccccc2)c1` (racemic) [Verbindung 201, (+)-cis-2,2-Dimethyl-3-(2,2-dichlorvinyl)-cyclopropancarbonsäure-3-phenoxybenzylester], the Gewichtsverlust was 3,7 mg in assay [1] (setting [13]); 4,3 mg in assay [2] (setting [10]); 1,9 mg in assay [3] (setting [14]); 1,7 mg in assay [4] (setting [15]); 1,2 mg in assay [6] (setting [16]); 18,9 mg in assay [8] (setting [17]). Further, the “Schutz gegen keratinfressende Schädlinge” value is reported as “hervorragend gegen die in Beispiel 4 genannten keratinfressenden Schädlinge geschützt” in assay [5] and “gegen die in Beispiel 4 genannten keratinfressenden Schädlinge geschützt” in assay [7].

For the molecule `CC#CC(OC(=O)[C@H]1[C@H](C=C(Cl)Cl)C1(C)C)c1cccc(Oc2ccccc2)c1` (relative stereo) [Verbindung 102, (+)-trans-2,2-Dimethyl-3-(2,2-dichlorvinyl)-cyclopropancarbonsäure-3-phenoxy-a-propin-l-yl-benzylester], the Gewichtsverlust in assay [1] (setting [9]) is 15,3 mg; in assay [2] (setting [10]), 43,4 mg; in assay [3] (setting [9]), 4,4 mg; in assay [4] (setting [10]), 2,6 mg; in assay [6] (setting [11]) it was 27,1 mg; in assay [8] (setting [12]), 51,7 mg.

As to `CC1(C)[C@@H](C=C(Cl)Cl)[C@@H]1C(=O)OCc1cccc(Oc2ccccc2)c1` (relative stereo) [Verbindung 203, (+)-trans-2,2-Dimethyl-3-(2,2-dichlorvinyl)-cyclopropancarbonsäure-3-phenoxybenzylester], the Gewichtsverlust in assay [1] (setting [13]) was 39,3 mg; in assay [2] (setting [10]), 54,2 mg; in assay [3] (setting [14]), 17,4 mg; in assay [4] (setting [15]) it was 26,9 mg; in assay [6] (setting [16]) it was 28,1 mg; in assay [8] (setting [17]) it was 68,3 mg.

Consider `CC1(C)[C@@H](C=C(Cl)Cl)[C@@H]1C(=O)OC(C#N)c1ccc(F)c(Oc2ccccc2)c1` (relative stereo) [Verbindung 302, (+)-trans-2,2-Dimethyl-3-(2,2-dichlorvinyl)-cyclopropancarbonsäure-3-phenoxy-4-fluor-a-cyanobenzylester], for which the Gewichtsverlust in assay [1] (setting [14]) was 9,3 mg; in assay [2] (setting [15]) it was 51,4 mg; in assay [4] (setting [15]) it was 0,4 mg; in assay [6] (setting [16]), 16,3 mg; in assay [8] (setting [17]), 48,0 mg.

Values taken from patent EP0170611A1, “Process for protecting keratinic material against deterioration by keratin devouring insects” (priority 1984, dated 1986).
